Test results reported in patent US20210205638A1, “PARATHYROID HORMONE AND REGENERATION OF DEGENERATIVE DISCS DISEASE” (THE JOHNS HOPKINS UNIVERSITY, priority 2017, published 2021).

What was measured:
PTH1R KO mice = experiment: iPTH in PTH1R KO and PTH1R+/+ mice: PPCT IVD volume; format: in vivo, mouse
Experimental: Mice carrying the PTH1R gene flanked by loxP sites (PTH1R^flox/flox) were mated with Noto^Cre mice to generate mice bearing Noto^Cre and a floxed PTH1R allele in their germline. These mice were backcrossed to homozygous floxed mice (Noto^Cre/+/PTH1R^flox/+::PTH1R^flox/flox) to generate mice with inactivation of both alleles in notochord derived cells (genotype Noto^+/+::PTH1R^flox/flox). […] The genotype of transgenic mice was determined by PCR analyses of genomic DNA isolated from mouse tails. […] The images were reconstructed and analyzed using the GPU-CT-Reconstruction software (applied by the BL13W1 experimental station) and the VG Studio Max 3D software (version 2.1, Volume Graphics GmbH, Germany) respectively. […] The 3D quantitative analysis of IVDs was performed with the commercially available Image Pro Analyzer 3D software (Version 7.0, Media Cybernetics, Inc., USA). The 3D structural parameters analyzed for the mean height and volume and thickness distribution of IVDs. The trabecular bone of L4 was segmented from the bone marrow and analyzed to determine the trabecular bone volume fraction (BV/TV), trabecular thickness (Tb. Th), trabecular number (Tb. N) and trabecular separation (Tb. Sp).

18-month-old mice = experiment: iPTH in aged mice: safranin O staining and immunostaining of IVD sections; format: in vivo, mouse
Experimental: For immunocytochemical staining, we incubated GFP labeled NP cells co-stained with primary antibody to rabbit PTH1R PRB-635P (Covance, 1:100) for 1 h and subsequently stained with secondary antibodies conjugated with fluorescence at room temperature. At the time of euthanasia, we dissected and fixed the lumbar vertebral spine in 10% buffered formalin for 48 h, decalcified them in 10% EDTA (pH 7.4) for 14-21 days and embedded them in paraffin or optimal cutting temperature (OCT) compound (Sakura Finetek). Fourmicrometer-thick coronal-oriented sections of the L1-L6 spine were processed for safranin O and fast green staining. Sections for immunostaining was performed using a standard protocol and incubated with primary antibodies to rabbit ACAN (Abcam, 1:100), CCN2 (Abcam, 1:100), integrin β8 (Abcam, 1:200), pCREB (Abcam, 1:100) and PTH1R PRB-635P (Covance, 1:100), mouse pSmad2/3 (Santa Cruz, 1:100), integrin αvβ6 (Millipore, 1:100), integrin αvβ3 (Bioss, 1:100,), integrin αvβ5 (Bioss, 1:100) at 4° C. overnight. For immunohistochemical staining, a horse radish peroxidase-streptavidin detection system (Dako) was subsequently used to detect the immunoactivity, followed by counterstaining with hematoxylin (Sigma-Aldrich). For immunofluorescent assay, the slides were incubated with secondary antibodies conjugated with fluorescence at room temperature for 1 h while avoiding light. We used isotype-matched controls, such as polyclonal rabbit IgG (R&D Systems, AB-105-C) under the same concentrations and conditions as negative controls. We micro photographed sections to perform histomorphometric measurements on the entire area of the L3-L4 of the spine (Olympus DP71).
Quantitative histomorphometric analysis was conducted in a blinded fashion with Image-Pro Plus Software version 6.0 (Media Cybernetics Inc). IVD histological score were obtained as previously described67. Five randomly selected sections per mice in each group at L3-L4 level were chosen for quantitative histomorphometric analysis. The percentage of pSmad2/3 and pCREB positive cells was obtained by counting the number of positive staining cells to the number of total cells in the NP region. The percentage area of CCN2 and ACAN positive staining was calculated by measuring the positive area to the whole area of the L3-L4 in each group.

With `CC[C@H](C)[C@H](NC(=O)[C@H](CCC(=O)O)NC(=O)[C@H](CO)NC(=O)[C@@H](NC(=O)[C@@H](N)CO)C(C)C)C(=O)N[C@@H](CCC(N)=O)C(=O)N[C@@H](CC(C)C)C(=O)N[C@@H](CCSC)C(=O)N[C@@H](Cc1cnc[nH]1)C(=O)N[C@@H](CC(N)=O)C(=O)N[C@@H](CC(C)C)C(=O)NCC(=O)N[C@@H](CCCCN)C(=O)N[C@@H](Cc1cnc[nH]1)C(=O)N[C@@H](CC(C)C)C(=O)N[C@@H](CC(N)=O)C(=O)N[C@@H](CO)C(=O)N[C@@H](CCSC)C(=O)N[C@@H](CCC(=O)O)C(=O)N[C@@H](CCCN=C(N)N)C(=O)N[C@H](C(=O)N[C@@H](CCC(=O)O)C(=O)N[C@@H](Cc1c[nH]c2ccccc12)C(=O)N[C@@H](CC(C)C)C(=O)N[C@@H](CCCN=C(N)N)C(=O)N[C@@H](CCCCN)C(=O)N[C@@H](CCCCN)C(=O)N[C@@H](CC(C)C)C(=O)N[C@@H](CCC(N)=O)C(=O)N[C@@H](CC(=O)O)C(=O)N[C@H](C(=O)N[C@@H](Cc1cnc[nH]1)C(=O)N[C@@H](CC(N)=O)C(=O)N[C@@H](Cc1ccccc1)C(=O)O)C(C)C)C(C)C` [PTH (1-34), teriparatide] the “increase of IVD volume by iPTH” value (PTH1R KO mice; 12-month-old PTH1R KO mice) was “abolished”, the IVD volume (PTH1R KO mice; 12-month-old PTH1R+/+ mice) was “Increase” and the IVD score (18-month-old mice) was “decrease”. For the same compound, the “level of CCN2+” value (18-month-old mice; immunostaining) was “increased”, the level of aggrecan (18-month-old mice; immunostaining) was “increased” and the “number of pSmad2/3+ NP cells” value (18-month-old mice; immunostaining) was “increased”. For the same compound, the “number of NP cells” value (18-month-old mice; safranin O) was “significantly increased”.
